Test results reported in patent US20170157301A1, “LEOLIGIN DERIVATIVES AS SMOOTH MUSCLE CELL PROLIFERATION INHIBITORS” (TECHNISCHE UNIVERSITAET WIEN, priority 2014, published 2017).

System: SMCs in relation to ECs
Assay: activity ratio: efficiency towards SMCs / efficiency towards ECs
Assay type: cell-based
Settings: activity ratio class; order in Table 1 follows the calculated values
Protocol: For determination of vascular SMC proliferation, 0.5×10^4 viable rat aortic SMCs per well were seeded in SMC growth medium (DMEM/F12 medium with 20% serum, 30 μg/mL Gentamicin and 15 ng/mL Amphotericin) in 96-well plates. 24 h later, the medium was removed, the cells were washed once with SMC starvation medium (DMEM/F12 medium with 0.1% serum, 0.2% BSA, 30 μg/mL Gentamicin and 15 ng/mL Amphotericin) and incubated in starvation medium for further 24 h.
The quiescent cells were then pretreated for 30 min with the test compounds and induced to proliferate with 20 ng/mL platelet-derived growth factor (PDGF). Unstimulated cells were utilized for normalization and estimation of the basal level of proliferation. The final concentration of the solvent vehicle, dimethyl sulfoxide (DMSO), was the same (0.1%) in all wells. 48 h later, the SMC proliferation was quantified by resazurin dye conversion for 2 h as previously described (H. Joa et al., J. Nat. Prod. 74(6), 1513-6 (2011)).
For determination of endothelial cell proliferation, 0.5×10^4 HUVECtert immortalized human umbilical vein endothelial cells (H. B. Schiller et al., Mol. Biol. Cell. 20(3), 745-756 (2009)) were seeded in 96-well plates for 24 h in HUVEC Complete Medium (EBM™ growth medium supplemented with 10% fetal bovine serum, EBM™ SingleQuots (Lonza, Basel, Switzerland), 100 U/mL benzylpenicillin, 100 μg/mL streptomycin, and 1% amphotericin). Afterwards, the medium was exchanged with fresh HUVEC Complete Medium and cells were treated with the indicated compounds for 48 h. After the end of the incubation period, the medium was removed, the cells were washed once with 200 μL/well PBS, and treated with 150 μL HUVEC Complete Medium containing 10 μg/mL resazurin. 2 h later, the fluorescence was measured at a wavelength of 580 nm, with excitation wavelength 535 nm in a 96-well plate reader (Tecan GENios Pro; Tecan Group Ltd., Mannedorf, Switzerland).
In every case, the percentage of viable cells was subtracted from 1, in order to obtain a measure of efficiency of the test compounds towards each particular type of cells, and subsequently, the efficiency quotient towards SMCs and ECs was calculated and taken as the “activity ratio” and thus as a measure of selective efficiency of each test compound towards SMCs in relation to ECs. For example, the synthetic Leoligin with the bio ID 2418 prepared in Comparative Example 27 as compound 10-22 gave the following results:
Due to the usual fluctuations in determining surviving cells, which amount to approximately ±10%, and due to the relatively strong resulting fluctuations in calculating quotients—especially if the inhibitory effect of said novel compounds towards ECs is very poor—said threshold value of 1.50 for the activity ratio, as already mentioned above, was introduced.
In the following, a table listing every compound prepared in examples and comparative Examples for which an activity ratio (a.r.) of >1.0 was determined, is given.

| Compound | a.r. code |
| --- | --- |
| COc1cc([C@H]2OC[C@H](Cc3ccc(C(C)(C)C)cc3)[C@@H]2CO)cc(OC)c1OC [Comparative Example 13, ((2S,3R,4R)-4-(4-(tert-butyl)benzyl)-2-(3,4,5-trimethoxyphenyl)tetrahydrofuran-3-yl)methanol] | V (1.0 < a.r. < 1.50) |
| C/C=C(/C)C(=O)OC[C@H]1[C@@H](Cc2ccc(C(F)(F)F)cc2)CO[C@@H]1c1ccc(OC)c(OC)c1 [Comparative Example 24, (Z)-((2S,3R,4R)-2-(3,4-dimethoxyphenyl)-4-(4-(trifluoromethyl)benzyl)tetra-hydrofuran-3-yl)methyl 2-methylbut-2-enoate] | V (1.0 < a.r. < 1.50) |
| C/C=C(/C)C(=O)OC[C@H]1[C@@H](Cc2ccc(OC)c(OC)c2)CO[C@@H]1c1ccc(F)cc1 [Comparative Example 26, (Z)-((2S,3R,4R)-4-(3,4-dimethoxybenzyl)-2-(4-fluorophenyl)tetrahydrofuran-3-yl)methyl 2-methylbut-2-enoate] | V (1.0 < a.r. < 1.50) |
| C/C=C(/C)C(=O)OC[C@H]1[C@@H](Cc2ccc(OC)c(OC)c2)CO[C@@H]1c1ccc(OC)cc1 [Comparative Example 28, (Z)-((2S,3R,4R)-4-(3,4-dimethoxybenzyl)-2-(4-methoxyphenyl)tetrahydrofuran-3-yl)methyl 2-methylbut-2-enoate] | V (1.0 < a.r. < 1.50) |
| C/C=C(/C)C(=O)OC[C@H]1[C@@H](Cc2ccc(OC)cc2)CO[C@@H]1c1ccccc1 [Comparative Example 29, (Z)-((2S,3R,4R)-4-(4-methoxybenzyl)-2-phenyltetrahydrofuran-3-yl)methyl 2-methylbut-2-enoate] | V (1.0 < a.r. < 1.50) |
| C/C=C(/C)C(=O)OC[C@H]1[C@@H](Cc2ccc(OC)cc2)CO[C@@H]1c1ccc(F)cc1 [Comparative Example 30, (Z)-((2S,3R,4R)-2-(4-fluorophenyl)-4-(4-methoxybenzyl)tetrahydrofuran-3-yl)-methyl 2-methylbut-2-enoate] | V (1.0 < a.r. < 1.50) |
| C/C=C(/C)C(=O)OC[C@H]1[C@@H](Cc2ccccc2)CO[C@@H]1c1cc(OC)c(OC)c(OC)c1 [Comparative Example 31, (Z)-((2S,3R,4R)-4-benzyl-2-(3,4,5-trimethoxyphenyl)tetrahydrofuran-3-yl)-methyl 2-methylbut-2-enoate] | V (1.0 < a.r. < 1.50) |
| C/C=C(/C)C(=O)OC[C@H]1[C@@H](Cc2ccc(C(F)(F)F)cc2)CO[C@@H]1c1cc(OC)c(OC)c(OC)c1 [Comparative Example 32, (Z)-((2S,3R,4R)-4-(4-(trifluoromethyl)benzyl)-2-(3,4,5-trimethoxyphenyl)-tetrahydrofuran-3-yl)methyl 2-methylbut-2-enoate] | V (1.0 < a.r. < 1.50) |
| C/C=C(/C)C(=O)OC[C@H]1[C@@H](Cc2ccc(OC)cc2)CO[C@@H]1c1cc(OC)c(OC)c(OC)c1 [Comparative Example 33, (Z)-((2S,3R,4R)-4-(4-methoxybenzyl)-2-(3,4,5-trimethoxyphenyl)tetrahydro-furan-3-yl)methyl 2-methylbut-2-enoate] | V (1.0 < a.r. < 1.50) |
| C/C=C(/C)C(=O)OC[C@H]1[C@@H](Cc2ccc(C)cc2)CO[C@@H]1c1cc(OC)c(OC)c(OC)c1 [Comparative Example 34, (Z)-((2S,3R,4R)-4-(4-methylbenzyl)-2-(3,4,5-trimethoxyphenyl)tetrahydrofuran-3-yl)methyl 2-methylbut-2-enoate] | V (1.0 < a.r. < 1.50) |
| C/C=C(\C)C(=O)OC[C@H]1[C@@H](Cc2ccc(OC)c(OC)c2)CO[C@@H]1c1ccc(OC)c(OC)c1 [Comparative Example 35, (E)-((2S,3R,4R)-4-(3,4-dimethoxybenzyl)-2-(3,4-dimethoxyphenyl)tetrahydro-furan-3-yl)methyl 2-methylbut-2-enoate] | V (1.0 < a.r. < 1.50) |
| COc1ccc(C[C@H]2CO[C@H](c3ccc(OC)c(OC)c3)[C@H]2COC(=O)C2CCCC2)cc1OC [Comparative Example 36, ((2S,3R,4R)-4-(3,4-dimethoxybenzyl)-2-(3,4-dimethoxyphenyl)tetrahydrofuran-3-yl)methyl cyclopentanecarboxylate] | V (1.0 < a.r. < 1.50) |
| COc1ccc(C[C@H]2CO[C@H](c3ccc(OC)c(OC)c3)[C@H]2COC(=O)C2CCCCC2)cc1OC [Comparative Example 37, ((2S,3R,4R)-4-(3,4-dimethoxybenzyl)-2-(3,4-dimethoxyphenyl)tetrahydrofuran-3-yl)methyl cyclohexanecarboxylate] | V (1.0 < a.r. < 1.50) |
| COc1ccc(C[C@H]2CO[C@H](c3ccc(OC)c(OC)c3)[C@H]2COC(=O)c2ccc3ccccc3c2)cc1OC [Comparative Example 38, ((2S,3R,4R)-4-(3,4-dimethoxybenzyl)-2-(3,4-dimethoxyphenyl)tetrahydrofuran-3-yl)methyl 2-naphthoate] | V (1.0 < a.r. < 1.50) |
| COc1cc([C@H]2OC[C@H](Cc3ccc(C)cc3)[C@@H]2COC(=O)C2CCCC2)cc(OC)c1OC [Comparative Example 39, ((2S,3R,4R)-4-(4-methylbenzyl)-2-(3,4,5-trimethoxyphenyl)tetrahydrofuran-3-yl)methyl cyclopentanecarboxylate] | V (1.0 < a.r. < 1.50) |
| COc1ccc([C@H]2OC[C@H](Cc3ccc(C(F)(F)F)cc3)[C@@H]2COC(=O)c2ccccc2C)cc1OC [Comparative Example 40, ((2S,3R,4R)-2-(3,4-dimethoxyphenyl)-4-(4-(trifluoromethyl)benzyl)tetrahydro-furan-3-yl)methyl 2-methylbenzoate] | V (1.0 < a.r. < 1.50) |
| COc1ccc(C[C@H]2CO[C@H](c3ccc(OC)c(OC)c3)[C@H]2COC(=O)CC(C)C)cc1OC [Comparative Example 41, ((2S,3R,4R)-4-(3,4-dimethoxybenzyl)-2-(3,4-dimethoxyphenyl)tetrahydrofuran-3-yl)methyl 3-methylbutanoate] | V (1.0 < a.r. < 1.50) |
| COc1ccc(C[C@H]2CO[C@H](c3ccc(OC)c(OC)c3)[C@H]2COC(=O)CC(C)(C)C)cc1OC [Comparative Example 42, ((2S,3R,4R)-4-(3,4-dimethoxybenzyl)-2-(3,4-dimethoxyphenyl)tetrahydrofuran-3-yl)methyl 3,3-dimethylbutanoate] | V (1.0 < a.r. < 1.50) |
| COc1ccc(C[C@H]2CO[C@H](c3ccc(F)cc3)[C@H]2COC(=O)CC(C)(C)C)cc1OC [Comparative Example 43, ((2S,3R,4R)-4-(3,4-dimethoxybenzyl)-2-(4-fluorophenyl)tetrahydrofuran-3-yl)-methyl 3,3-dimethylbutanoate] | V (1.0 < a.r. < 1.50) |
| CCC(CC)C(=O)OC[C@H]1[C@@H](Cc2ccc(OC)c(OC)c2)CO[C@@H]1c1ccc(OC)c(OC)c1 [Comparative Example 44, ((2S,3R,4R)-4-(3,4-dimethoxybenzyl)-2-(3,4-dimethoxyphenyl)tetrahydrofuran-3-yl)methyl 2-ethylbutanoate] | V (1.0 < a.r. < 1.50) |
| COc1ccc(C[C@H]2CO[C@H](c3ccc(OC)c(OC)c3)[C@H]2COC(=O)C(C)(C)C)cc1OC [Comparative Example 45, ((2S,3R,4R)-4-(3,4-dimethoxybenzyl)-2-(3,4-dimethoxyphenyl)tetrahydrofuran-3-yl)methyl pivalate] | V (1.0 < a.r. < 1.50) |
| COc1ccc(C[C@H]2CO[C@H](c3cc(OC)c(OC)c(OC)c3)[C@H]2COC(=O)C2=CCCCC2)cc1OC [Comparative Example 46, ((2S,3R,4R)-4-(3,4-dimethoxybenzyl)-2-(3,4,5-trimethoxyphenyl)tetrahydro-furan-3-yl)methyl cyclohex-1-enecarboxylate] | V (1.0 < a.r. < 1.50) |
| COc1ccc([C@H]2OC[C@H](Cc3ccc(C(C)(C)C)cc3)[C@@H]2CO)cc1OC [Example 1, ((2S,3R,4R)-4-(4-(tert-butyl)benzyl)-2-(3,4-dimethoxyphenyl)tetrahydrofuran-3-yl)methanol] | A (a.r. ≧ 1.50) |
| COc1ccc([C@H]2OC[C@H](Cc3ccc(C)cc3)[C@@H]2CO)cc1OC [Example 2, ((2S,3R,4R)-2-(3,4-dimethoxyphenyl)-4-(4-methylbenzyl)tetrahydrofuran-3-yl)-methanol] | AAA (a.r. ≧ 5.0) |
